Experimental data as given in US10844032B2, “Substituted benzofuran, benzothiophene and indole Mcl-1 inhibitors” (Vanderbilt University, priority 2012, dated 2020).
pIC50, pKi: −log10 of the molar value. Read-outs that look alike come from different tables or passages of the source.

Experiments:
[1] = target: Bcl-2 (residues 1-207 A96T,G110R, Δ35-91, replaced with Bcl-xL35-50) (Homo sapiens, UniProt P10415, A37E/DEL42-87/G36T/INS34DVEEN/P40E/P88T/P90S/P91E/V35R/V89E); assay: Bak peptide fluorescence polarization anisotropy competition assay, Bcl-2 selectivity; type: binding; conditions: Table 3; FITC-Bak peptide 10 nM, Bcl-2 40 nM
Bcl-2 (residues 1-207 A96T,G110R, Δ35-91, replaced with Bcl-xL35-50), sequence (P10415 with tags, fused parts or gaps A37E/DEL42-87/G36T/INS34DVEEN/P40E/P88T/P90S/P91E/V35R/V89E): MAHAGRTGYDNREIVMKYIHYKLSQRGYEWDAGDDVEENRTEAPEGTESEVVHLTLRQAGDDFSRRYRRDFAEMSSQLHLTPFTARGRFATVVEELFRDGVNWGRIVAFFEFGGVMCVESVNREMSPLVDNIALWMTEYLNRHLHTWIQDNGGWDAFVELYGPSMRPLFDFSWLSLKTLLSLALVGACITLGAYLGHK
Protocol: (§1) Compound affinity was measured using a fluorescence polarization anisotropy competition assay. Anisotropy measurements were carried out in 384-well, black, flat-bottom plates (Greiner Bio-one, Monroe, N.C., USA).
(§2) Compounds are diluted in DMSO in a 10-point, 3-fold serial dilution scheme. 2.5 uL compound is added to 47.5 uL of assay buffer containing FITC-Bak and protein, for a final DMSO concentration of 5% and a top concentration of 20 uM. […] The plate was mixed and incubated for 90 minutes at room temperature.

[2] = target: Bcl-xL (residues 1-209, loop 45-86 deleted) (Homo sapiens (Human), UniProt Q07817, DEL45-86); assay: Bak peptide fluorescence polarization anisotropy competition assay, Bcl-xL selectivity; type: binding; conditions: Table 3; FITC-Bak peptide 10 nM, Bcl-xL 4 nM
Bcl-xL (residues 1-209, loop 45-86 deleted), sequence (Q07817 other isoform, or with tags, fused parts or gaps del 45-86): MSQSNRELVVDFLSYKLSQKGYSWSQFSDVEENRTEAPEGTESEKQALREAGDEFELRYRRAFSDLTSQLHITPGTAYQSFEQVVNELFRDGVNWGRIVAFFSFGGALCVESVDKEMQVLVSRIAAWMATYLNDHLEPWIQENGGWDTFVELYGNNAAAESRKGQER
Protocol: as §1, §2

[3] = target: recombinant Mcl-1 (residues 172-327) (Homo sapiens (Human), UniProt Q07820); assay: Bak peptide fluorescence polarization anisotropy competition assay, Mcl-1; type: binding; conditions: read-out: Ki for inhibition of Mcl-1
recombinant Mcl-1 (residues 172-327), sequence (Q07820 172-327): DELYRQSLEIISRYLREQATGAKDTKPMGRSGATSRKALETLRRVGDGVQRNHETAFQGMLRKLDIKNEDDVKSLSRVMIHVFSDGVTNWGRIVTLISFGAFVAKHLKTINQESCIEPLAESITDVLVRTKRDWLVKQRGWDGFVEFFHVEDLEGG

K562 [4] = assay: Cellular proliferation, CellTiter-Glo, K562; type: cell-based; conditions: Homo sapiens; K562, 10% FBS, 72 hours
Protocol: (§3) To evaluate compound effect on cellular proliferation, cells were plated at 1,000 cells/well in 96-well tissue culture plates in a total volume of 90 uL medium supplemented with 10% FBS (Sigma, Saint Louis, Mo.). 24 hours later, 10 uL of compound (in a 2-fold serial dilution) is added to the cells for a top concentration of 50 uM and a final DMSO concentration <1%. After 72 hours, cell number was measured using the CellTiter-Glo Luminescent assay according to manufacturer's recommendations (Promega, Madison, Wis.). A viability assay in reduced serum was also conducted. Cells were plated at 5,000 cells/well in 96-well plates in a total volume of 100 uL medium supplemented with 10% FBS (Sigma, Saint Louis, Mo.). 24 hours later, the medium was replaced with 90 uL medium containing 1% FBS and the assay conducted as described. IC50 values were determined by plotting growth against compound concentration in a 4-parameter logisitic model in XLFit.

NCI-929 [5] = assay: Cellular proliferation, CellTiter-Glo, NCI-929; type: cell-based; conditions: Homo sapiens; NCI-929, 10% FBS, 72 hours
Protocol: as §3

MDA-MB-468 [6] = assay: Cellular proliferation, CellTiter-Glo, MDA-MB-468; type: cell-based; conditions: Homo sapiens, MDA-MB-468, 72 h, read-out: IC50 on cellular proliferation, MDA-MB-468
Protocol: as §3

MDA-MB-231 [7] = assay: Cellular proliferation, CellTiter-Glo, MDA-MB-231; type: cell-based; conditions: Homo sapiens; MDA-MB-231, 10% FBS, 72 hours
Protocol: as §3

K562 [8] = assay: Cellular viability in reduced serum, CellTiter-Glo, K562; type: cell-based; conditions: Homo sapiens; K562, reduced serum (1% FBS)
Protocol: as §3

NCI-929 [9] = assay: Cellular viability in reduced serum, CellTiter-Glo, NCI-929; type: cell-based; conditions: Homo sapiens; NCI-929, reduced serum (1% FBS)
Protocol: as §3

MDA-MB-468 [10] = assay: Cellular viability in reduced serum, CellTiter-Glo, MDA-MB-468; type: cell-based; conditions: Homo sapiens, MDA-MB-468, read-out: IC50 on cellular viability, MDA-MB-468
Protocol: as §3

MDA-MB-231 [11] = assay: Cellular viability in reduced serum, CellTiter-Glo, MDA-MB-231; type: cell-based; conditions: Homo sapiens; MDA-MB-231, reduced serum (1% FBS)
Protocol: as §3

[12] = Table 2, Ki range, FITC-Bak peptide 10 nM, Mcl-1 14 nM

## O=C(O)c1sc2cc(Cl)ccc2c1CCCOc1cccc2ccccc12 [Example 5, 6-chloro-3-(3-(naphthalen-1-yloxy)propyl)benzo[b]thiophene-2-carboxylic acid]
[1]
  pKi: 5.96

## Cc1cc(OCCCc2c(C(=O)O)sc3cc(Cl)ccc23)cc(C)c1Cl [Example 6]
[1]
  pKi: 6.00
[2]
  pKi: 5.62

## Cc1cc(OCCCc2c(C(=O)NS(=O)(=O)CCNC(=O)c3cccn3C)[nH]c3c(-c4c(CO)nn(C)c4C)cccc23)cc(C)c1Cl [Example 206, 3-(3-(4-chloro-3,5-dimethylphenoxy)propyl)-7-(3-(hydroxymethyl)-1,5-dimethyl-1H-1-pyrazol-4-yl)-N-((2-(1-methyl-1H-pyrrole-2-carboxamido)ethyl)sulfonyl)-1H-indole-2-carboxamide]
[3]; [12]
  pKi: ≥ 7.00
K562 [4]
  pIC50: < 4.30
NCI-929 [5]
  pIC50: < 4.30
MDA-MB-468 [6]
  pIC50: 4.30
MDA-MB-231 [7]
  pIC50: < 4.30
K562 [8]
  pIC50: 4.97
NCI-929 [9]
  pIC50: 4.47
MDA-MB-468 [10]
  pIC50: 4.57
MDA-MB-231 [11]
  pIC50: 4.74

## Cc1cc(OCCCc2c(C(=O)NS(=O)(=O)c3ccccc3)[nH]c3c(-c4cccnc4C)cccc23)cc(C)c1Cl [Example 97, 3-(3-(4-chloro-3,5-dimethylphenoxy)propyl)-7-(2-methylpyridin-3-yl)-N-(phenylsulfonyl)-1H-indole-2-carboxamide]
K562 [4]
  pIC50: 4.75
NCI-929 [5]
  pIC50: 4.63
MDA-MB-468 [6]
  pIC50: 4.86
MDA-MB-231 [7]
  pIC50: 4.77
K562 [8]
  pIC50: 5.59
NCI-929 [9]
  pIC50: 5.29
MDA-MB-468 [10]
  pIC50: 4.95
MDA-MB-231 [11]
  pIC50: 4.89

## O=C(O)c1oc2ccccc2c1CCCOc1cccc2ccccc12 [Example 21, 3-(3-(naphthalen-1-yloxy)propyl)benzofuran-2-carboxylic acid]
[1]
  pKi: 5.34

## Cc1cc(OCCCc2c(C(=O)NS(=O)(=O)CCNC(=O)c3cccn3Cc3ccccc3)[nH]c3c(-c4c(CO)nn(C)c4C)cccc23)cc(C)c1Cl [Example 207, N-((2-(1-benzyl-1H-pyrrole-2-carboxamido)ethyl)sulfonyl)-3-(3-(4-chloro-3,5-dimethylphenoxy)propyl)-7-(3-(hydroxymethyl)-1,5-dimethyl-1H-pyrazol-4-yl)-1H-indole-2-carboxamide]
[3]; [12]
  pKi: ≥ 7.00
K562 [4]
  pIC50: < 4.30
NCI-929 [5]
  pIC50: 4.52
MDA-MB-468 [6]
  pIC50: 4.34
MDA-MB-231 [7]
  pIC50: < 4.30
K562 [8]
  pIC50: 5.00
NCI-929 [9]
  pIC50: 4.92
MDA-MB-468 [10]
  pIC50: 4.83
MDA-MB-231 [11]
  pIC50: 4.85

## COC(=O)c1cc(S(=O)(=O)NC(=O)c2[nH]c3cc(Cl)ccc3c2CCCOc2cc(C)c(Cl)c(C)c2)oc1C [Example 264, methyl 5-(N-(6-chloro-3-(3-(4-chloro-3,5-dimethylphenoxy)propyl)-1H-indole-2-carbonyl)sulfamoyl)-2-methylfuran-3-carboxylate]
[3]; [12]
  pKi: ≥ 7.00

## CC(=O)NCCS(=O)(=O)NC(=O)c1[nH]c2ccccc2c1CCCOc1cc(C)c(Cl)c(C)c1 [Example 198, N-((2-acetamidoethyl)sulfonyl)-3-(3-(4-chloro-3,5-dimethylphenoxy)propyl)-1H-indole-2-carboxamide]
[3]
  pKi: 6.00 to 6.30

## Cc1cc(OCCCc2c(C(=O)NS(=O)(=O)CCNC(=O)/C=C/c3ccccc3)[nH]c3ccccc23)cc(C)c1Cl [Example 163, (E)-3-(3-(4-chloro-3,5-dimethylphenoxy)propyl)-N-((2-cinnamamidoethyl)sulfonyl)-1H-indole-2-carboxamide]
[3]
  pKi: 6.52 to 7.00

## Cc1cc(OCCCc2c(C(=O)NS(=O)(=O)CCNC(=O)C3CCCCC3)[nH]c3cc(Cl)ccc23)cc(C)c1Cl [Example 226, 6-chloro-3-(3-(4-chloro-3,5-dimethylphenoxy)propyl)-N-((2-(cyclohexanecarboxamido)ethyl)sulfonyl)-1H-indole-2-carboxamide]
[3]; [12]
  pKi: ≥ 7.00

## COc1ccc(Oc2cccc(S(=O)(=O)NC(=O)c3[nH]c4cc(Cl)ccc4c3CCCOc3cc(C)c(Cl)c(C)c3)c2)cc1 [Example 220, 6-chloro-3-(3-(4-chloro-3,5-dimethylphenoxy)propyl)-N-((3-(4-methoxyphenoxy)phenyl)sulfonyl)-1H-indole-2-carboxamide]
[3]
  pKi: 6.52 to 7.00

## Cc1cc(OCCCc2c(C(=O)NS(=O)(=O)Cc3ccccc3)sc3ccccc23)cc(C)c1Cl [Example 70, N-(benzylsulfonyl)-3-(3-(4-chloro-3,5-dimethylphenoxy)propyl)benzo[b]thiophene-2-carboxamide]
[3]
  pKi: 6.00 to 6.30

## CS(=O)(=O)NC(=O)c1[nH]c2ccccc2c1CCCOc1ccc2ccccc2c1 [Example 37, N-(methylsulfonyl)-3-(3-(naphthalen-2-yloxy)propyl)-1H-indole-2-carboxamide]
[3]
  pKi: 5.00 to 6.00

## Cc1cc(OCCCc2c(C(=O)NS(C)(=O)=O)sc3ccccc23)cc(C)c1Cl [Example 68, 3-(3-(4-chloro-3,5-dimethylphenoxy)propyl)-N-(methylsulfonyl)benzo[b]thiophene-2-carboxamide]
[3]
  pKi: 5.00 to 6.00

## CS(=O)(=O)NC(=O)c1[nH]c2cc(Cl)ccc2c1CCCOc1ccc(Cl)c(Cl)c1 [Example 105, 6-chloro-3-(3-(3,4-dichlorophenoxy)propyl)-N-(methylsulfonyl)-1H-indole-2-carboxamide]
[3]
  pKi: 5.00 to 6.00

## CS(=O)(=O)NC(=O)c1[nH]c2cc(Cl)ccc2c1CCCOc1ccccc1Br [Example 107, 3-(3-(2-bromophenoxy)propyl)-6-chloro-N-(methylsulfonyl)-1H-indole-2-carboxamide]
[3]
  pKi: 5.00 to 6.00

## Cc1cc(OCCCc2c(C(=O)NS(=O)(=O)c3ccccc3)[nH]c3c(-c4cccnc4)cccc23)cc(C)c1Cl [Example 93, 3-(3-(4-chloro-3,5-dimethylphenoxy)propyl)-N-(phenylsulfonyl)-7-(pyridin-3-yl)-1H-indole-2-carboxamide]
[3]
  pKi: 6.52 to 7.00

## Cc1cc(OCCCc2c(C(=O)NS(=O)(=O)c3ccc(OCc4ccccc4)nc3)[nH]c3cc(Cl)ccc23)cc(C)c1Cl [Example 225, N-((6-(benzyloxy)pyridin-3-yl)sulfonyl)-6-chloro-3-(3-(4-chloro-3,5-dimethylphenoxy)propyl)-1H-indole-2-carboxamide]
[3]
  pKi: 6.30 to 6.52

## Cc1cc(OCCCc2c(C(=O)NS(=O)(=O)CCNC(=O)CC3CCCCC3)[nH]c3ccccc23)cc(C)c1Cl [Example 152, 3-(3-(4-chloro-3,5-dimethylphenoxy)propyl)-N-((2-(2-cyclohexylacetamido)ethyl)sulfonyl)-1H-indole-2-carboxamide]
[3]
  pKi: 5.00 to 6.00
